# Measured values: patent publication US12649734B2, “Bioavailable protein disulfide isomerase inhibitors” (THE CLEVELAND CLINIC FOUNDATION, priority 2020, dated 2026)
# Experiments:
# [1] = molecular target: PDIA1 (Homo sapiens, UniProt P07237); test: Target validation in cells with biotinylated analogues (streptavidin blot, pull down, LCMS); format: cell-based; details: streptavidin blot and pull down of treated MM1.S cells
# Experimental: FIGS. 4A-4G provide graphs and images showing that model-based design improves potency and selectivity of protein disulfide isomerase A1 (PDIA1) inhibitors. (A) Ribbon diagram of CCF642-34 docked onto PDIA1. (B) Two-dimensional structure of modified CCF642 pharmacophore, where R represents amino acids tryptophan, tyrosine, phenylalanine, histidine, proline, or alanine. (C) PDIA1/PH4B activity assay was performed in the absence or presence of CCF642 or (D) CCF642-34. In time-dependent inhibition of di-E-GSSG, reduction was monitored for 1 h by the increase in fluorescence, and the relative fluorescence unit was plotted as a function of time. (E-F) The observed rate constant for inhibition, kobs, at each concentration determined from the slope of kinetic data presented in panel C and D. The kobs values are re-plotted against inhibitor concentration and fitted to a hyperbolic equation, kobs=k2[I]/(Ki+[I]), to obtain values for Ki and k2 in GraphPad Prism v8.0.2. The concentration of drug is indicated on each curve, for (E) 642 and (F) CCF642-34. (G) Target validation. […]
# Mass spectrometry: Tryptic peptide mixtures were analyzed by online LC-coupled tandem mass spectrometry (LCMS/MS) on an Orbitrap mass spectrometer (Thermo Fisher) as described previously. […] A peak list was created for each analyzed fraction (i.e., gel slice) and individual Sequest searches were performed for each fraction. […]
# [2] = Liver microsome assay; format: in vitro ADME; details: 0.25 mg/mL human liver microsomes
# Experimental: FIGS. 8A & 8B provide graphs showing the stability of CCF642-34 and restriction of multiple myeloma in a syngeneic mouse model by PDIA1-inhibitor CCF642-34. (A) The stability of CCF642-34 was measured against oxidative metabolism by human liver microsomes. CCF642-34 (20 μM) was incubated with 0.25 mg/mL of human liver microsomes for 5 h. The residual compound at indicated time points was measured by HPLC (Agilent 1260 Infinity II) interfaced with reverse phase C18 column using 280 nm and 245 nm detection wavelength. The standard curve of known concentrations of CCF642-34 was obtained from the area under the peak at two wavelengths, and the remaining CCF642-34 was estimated. Data are representative of two independent experiments. […] The survival of each group was monitored, and Kaplan-Meier survival analysis was performed. […]
# Liver microsome assay: 20 μM CCF642 or CCF642-34 were incubated with 1 mM NADPH and 0.25 mg/mL human liver microsomes (Sigma, Cat. No: M0567) at 37° C. […] Supernatant was obtained after centrifugation at 15,000 g for 5 min and the remaining compound in supernatant was analyzed by Agilent 1260 Infinity II HPLC with Ultra-violet (UV) detector using Gemini column, […] particle size 150×2 mm (Phenomenex). […] The relative amount of drug at each time point was determined by using the UV peak detection at wavelength 254 and 282 nm. […]
# PDIA1, sequence (P07237 18-508): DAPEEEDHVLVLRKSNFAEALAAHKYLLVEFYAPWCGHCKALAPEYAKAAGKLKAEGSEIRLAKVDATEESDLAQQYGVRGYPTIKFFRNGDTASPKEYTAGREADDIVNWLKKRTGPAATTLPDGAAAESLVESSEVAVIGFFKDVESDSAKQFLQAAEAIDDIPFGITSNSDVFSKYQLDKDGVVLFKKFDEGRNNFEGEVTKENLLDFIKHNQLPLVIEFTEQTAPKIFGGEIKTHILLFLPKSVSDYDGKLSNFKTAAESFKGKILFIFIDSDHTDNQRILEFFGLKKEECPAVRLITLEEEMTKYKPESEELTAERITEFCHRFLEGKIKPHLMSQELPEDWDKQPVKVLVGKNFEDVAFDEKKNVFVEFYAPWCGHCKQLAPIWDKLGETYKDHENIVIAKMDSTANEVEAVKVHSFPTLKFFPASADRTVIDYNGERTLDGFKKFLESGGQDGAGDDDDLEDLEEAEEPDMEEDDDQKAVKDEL
smiles,measurement,setting,value
NC(CC1CNc2ccccc21)C(=O)NCCCOc1ccc(N2C(=O)/C(=C/c3ccc([N+](=O)[O-])s3)SC2=S)cc1 (centres unmarked) [CCF642-34],binding selectivity in MM1.S cells,[1],remarkable selectivity for PDIA1
same,half-life at 20 µM,[2],> 5 h
